Laboratory results: PubChem BioAssay (NCI)
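Interpolation was linear, between the two tested concentrations surrounding the appropriate level; five concentrations were tested over 48 hours in 96-well plates. TGI: concentration producing complete growth inhibition.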

Tested on: NCI-H522 lung
Experiment: NCI-60 cell line screen, 48 h

Compound | TGI [µM]
CN(C)C(=S)/N=c1\ssc(=S)n1C1CCCCC1 | 37.4
CCCCCCCCCCCCNC(=S)OC | 26
O=c1[nH]c2cc(Cl)ccc2nc1/C(=N\Nc1ccccc1)C(O)c1ccc(Cl)c(Cl)c1 (configuration not stated) | > 100
S=P1(Oc2ccccc2)NNP2(=NP(N3CC3)(N3CC3)=NP(N3CC3)(N3CC3)=N2)NN1 (configuration not stated) | > 100
CN(C)CC1CCCC/C1=N/O (configuration not stated) | > 100
COc1c(CC(C)=O)ccc2c1C(=O)c1ccc(C=O)c(OC(C)=O)c1C2=O | 8.39

Tested on: RXF-631 renal
Experiment: NCI-60 cell line screen, 48 h

Compound | TGI [µM]
COc1ccc2c(c1)[n+]([O-])c(C(N)=O)c(N)[n+]2[O-] | > 100
CN(C)C(=S)/N=c1\ssc(=S)n1C1CCCCC1 | 40.8
O=c1[nH]c2cc(Cl)ccc2nc1/C(=N\Nc1ccccc1)C(O)c1ccc(Cl)c(Cl)c1 (configuration not stated) | > 100
S=P1(Oc2ccccc2)NNP2(=NP(N3CC3)(N3CC3)=NP(N3CC3)(N3CC3)=N2)NN1 (configuration not stated) | > 100
CN(C)CC1CCCC/C1=N/O (configuration not stated) | > 100
COc1c(CC(C)=O)ccc2c1C(=O)c1ccc(C=O)c(OC(C)=O)c1C2=O | 47.8

Tested on: DLD-1 colon
Experiment: NCI-60 cell line screen, 48 h

Compound | TGI [µM]
COc1ccc2c(c1)[n+]([O-])c(C(N)=O)c(N)[n+]2[O-] | > 100
Clc1ccc2cccc3c2c1C1OC3c2ccccc21 (configuration not stated) | > 100
CN(C)C(=S)/N=c1\ssc(=S)n1C1CCCCC1 | 58.2
CCCCCCCCCCCCNC(=S)OC | 28.9
O=c1[nH]c2cc(Cl)ccc2nc1/C(=N\Nc1ccccc1)C(O)c1ccc(Cl)c(Cl)c1 (configuration not stated) | > 100
S=P1(Oc2ccccc2)NNP2(=NP(N3CC3)(N3CC3)=NP(N3CC3)(N3CC3)=N2)NN1 (configuration not stated) | > 100
CN(C)CC1CCCC/C1=N/O (configuration not stated) | > 100
COc1c(CC(C)=O)ccc2c1C(=O)c1ccc(C=O)c(OC(C)=O)c1C2=O | 14.3

Tested on: SR leukemia
Experiment: NCI-60 cell line screen, 48 h

Compound | TGI [µM]
COc1ccc2c(c1)[n+]([O-])c(C(N)=O)c(N)[n+]2[O-] | > 100
Clc1ccc2cccc3c2c1C1OC3c2ccccc21 (configuration not stated) | > 100
CN(C)C(=S)/N=c1\ssc(=S)n1C1CCCCC1 | 63.1
CCCCCCCCCCCCNC(=S)OC | 17.9
O=c1[nH]c2cc(Cl)ccc2nc1/C(=N\Nc1ccccc1)C(O)c1ccc(Cl)c(Cl)c1 (configuration not stated) | > 100

Tested on: M14 melanoma
Experiment: NCI-60 cell line screen, 48 h

Compound | TGI [µM]
COc1ccc2c(c1)[n+]([O-])c(C(N)=O)c(N)[n+]2[O-] | > 100
Clc1ccc2cccc3c2c1C1OC3c2ccccc21 (configuration not stated) | > 100
CN(C)C(=S)/N=c1\ssc(=S)n1C1CCCCC1 | 36.3
CCCCCCCCCCCCNC(=S)OC | 32.1
O=c1[nH]c2cc(Cl)ccc2nc1/C(=N\Nc1ccccc1)C(O)c1ccc(Cl)c(Cl)c1 (configuration not stated) | > 100
CN(C)CC1CCCC/C1=N/O (configuration not stated) | > 100
COc1c(CC(C)=O)ccc2c1C(=O)c1ccc(C=O)c(OC(C)=O)c1C2=O | 25.6

Tested on: HOP-18 NSCLC
Experiment: NCI-60 cell line screen, 48 h

Compound | TGI [µM]
COc1ccc2c(c1)[n+]([O-])c(C(N)=O)c(N)[n+]2[O-] | > 100
Clc1ccc2cccc3c2c1C1OC3c2ccccc21 (configuration not stated) | > 100
CN(C)C(=S)/N=c1\ssc(=S)n1C1CCCCC1 | > 100
CCCCCCCCCCCCNC(=S)OC | 32.3
S=P1(Oc2ccccc2)NNP2(=NP(N3CC3)(N3CC3)=NP(N3CC3)(N3CC3)=N2)NN1 (configuration not stated) | > 100
CN(C)CC1CCCC/C1=N/O (configuration not stated) | > 100
COc1c(CC(C)=O)ccc2c1C(=O)c1ccc(C=O)c(OC(C)=O)c1C2=O | 40.6

Tested on: IGROV1 ovarian
Experiment: NCI-60 cell line screen, 48 h

Compound | TGI [µM]
COc1ccc2c(c1)[n+]([O-])c(C(N)=O)c(N)[n+]2[O-] | > 100
Clc1ccc2cccc3c2c1C1OC3c2ccccc21 (configuration not stated) | > 100
CN(C)C(=S)/N=c1\ssc(=S)n1C1CCCCC1 | > 100
CCCCCCCCCCCCNC(=S)OC | 24.3
O=c1[nH]c2cc(Cl)ccc2nc1/C(=N\Nc1ccccc1)C(O)c1ccc(Cl)c(Cl)c1 (configuration not stated) | > 100
S=P1(Oc2ccccc2)NNP2(=NP(N3CC3)(N3CC3)=NP(N3CC3)(N3CC3)=N2)NN1 (configuration not stated) | > 100
CN(C)CC1CCCC/C1=N/O (configuration not stated) | > 100
COc1c(CC(C)=O)ccc2c1C(=O)c1ccc(C=O)c(OC(C)=O)c1C2=O | 44.2

Tested on: HCT-15 colon
Experiment: NCI-60 cell line screen, 48 h

Compound | TGI [µM]
COc1ccc2c(c1)[n+]([O-])c(C(N)=O)c(N)[n+]2[O-] | > 100
CN(C)C(=S)/N=c1\ssc(=S)n1C1CCCCC1 | > 100
CCCCCCCCCCCCNC(=S)OC | 27.7
O=c1[nH]c2cc(Cl)ccc2nc1/C(=N\Nc1ccccc1)C(O)c1ccc(Cl)c(Cl)c1 (configuration not stated) | > 100
S=P1(Oc2ccccc2)NNP2(=NP(N3CC3)(N3CC3)=NP(N3CC3)(N3CC3)=N2)NN1 (configuration not stated) | > 100
CN(C)CC1CCCC/C1=N/O (configuration not stated) | > 100
COc1c(CC(C)=O)ccc2c1C(=O)c1ccc(C=O)c(OC(C)=O)c1C2=O | 29.5

Tested on: KM12 colon
Experiment: NCI-60 cell line screen, 48 h

Compound | TGI [µM]
COc1ccc2c(c1)[n+]([O-])c(C(N)=O)c(N)[n+]2[O-] | > 100
Clc1ccc2cccc3c2c1C1OC3c2ccccc21 (configuration not stated) | > 100
CN(C)C(=S)/N=c1\ssc(=S)n1C1CCCCC1 | > 100
CCCCCCCCCCCCNC(=S)OC | 29.6
O=c1[nH]c2cc(Cl)ccc2nc1/C(=N\Nc1ccccc1)C(O)c1ccc(Cl)c(Cl)c1 (configuration not stated) | > 100
S=P1(Oc2ccccc2)NNP2(=NP(N3CC3)(N3CC3)=NP(N3CC3)(N3CC3)=N2)NN1 (configuration not stated) | > 100
CN(C)CC1CCCC/C1=N/O (configuration not stated) | > 100
COc1c(CC(C)=O)ccc2c1C(=O)c1ccc(C=O)c(OC(C)=O)c1C2=O | 39.2

Tested on: CCRF-CEM leukemia
Experiment: NCI-60 cell line screen, 48 h

Compound | TGI [µM]
Clc1ccc2cccc3c2c1C1OC3c2ccccc21 (configuration not stated) | > 100
CN(C)C(=S)/N=c1\ssc(=S)n1C1CCCCC1 | 46.1
CCCCCCCCCCCCNC(=S)OC | 33.3
O=c1[nH]c2cc(Cl)ccc2nc1/C(=N\Nc1ccccc1)C(O)c1ccc(Cl)c(Cl)c1 (configuration not stated) | > 100
S=P1(Oc2ccccc2)NNP2(=NP(N3CC3)(N3CC3)=NP(N3CC3)(N3CC3)=N2)NN1 (configuration not stated) | > 100
CN(C)CC1CCCC/C1=N/O (configuration not stated) | > 100
COc1c(CC(C)=O)ccc2c1C(=O)c1ccc(C=O)c(OC(C)=O)c1C2=O | 55.9

Tested on: U251 CNS
Experiment: NCI-60 cell line screen, 48 h

Compound | TGI [µM]
COc1ccc2c(c1)[n+]([O-])c(C(N)=O)c(N)[n+]2[O-] | > 100
Clc1ccc2cccc3c2c1C1OC3c2ccccc21 (configuration not stated) | > 100
CN(C)C(=S)/N=c1\ssc(=S)n1C1CCCCC1 | 37.9
CCCCCCCCCCCCNC(=S)OC | 29.5
O=c1[nH]c2cc(Cl)ccc2nc1/C(=N\Nc1ccccc1)C(O)c1ccc(Cl)c(Cl)c1 (configuration not stated) | > 100
S=P1(Oc2ccccc2)NNP2(=NP(N3CC3)(N3CC3)=NP(N3CC3)(N3CC3)=N2)NN1 (configuration not stated) | > 100
CN(C)CC1CCCC/C1=N/O (configuration not stated) | > 100
COc1c(CC(C)=O)ccc2c1C(=O)c1ccc(C=O)c(OC(C)=O)c1C2=O | 36.8

Tested on: OVCAR-8 ovarian
Experiment: NCI-60 cell line screen, 48 h

Compound | TGI [µM]
COc1ccc2c(c1)[n+]([O-])c(C(N)=O)c(N)[n+]2[O-] | > 100
Clc1ccc2cccc3c2c1C1OC3c2ccccc21 (configuration not stated) | > 100
CN(C)C(=S)/N=c1\ssc(=S)n1C1CCCCC1 | 53.9
CCCCCCCCCCCCNC(=S)OC | 29.7
O=c1[nH]c2cc(Cl)ccc2nc1/C(=N\Nc1ccccc1)C(O)c1ccc(Cl)c(Cl)c1 (configuration not stated) | > 100
S=P1(Oc2ccccc2)NNP2(=NP(N3CC3)(N3CC3)=NP(N3CC3)(N3CC3)=N2)NN1 (configuration not stated) | > 100
CN(C)CC1CCCC/C1=N/O (configuration not stated) | > 100
COc1c(CC(C)=O)ccc2c1C(=O)c1ccc(C=O)c(OC(C)=O)c1C2=O | 97.3

Tested on: SK-MEL-28 melanoma
Experiment: NCI-60 cell line screen, 48 h

Compound | TGI [µM]
COc1ccc2c(c1)[n+]([O-])c(C(N)=O)c(N)[n+]2[O-] | > 100
Clc1ccc2cccc3c2c1C1OC3c2ccccc21 (configuration not stated) | > 100
CN(C)C(=S)/N=c1\ssc(=S)n1C1CCCCC1 | > 100
CCCCCCCCCCCCNC(=S)OC | 37.9
S=P1(Oc2ccccc2)NNP2(=NP(N3CC3)(N3CC3)=NP(N3CC3)(N3CC3)=N2)NN1 (configuration not stated) | > 100
CN(C)CC1CCCC/C1=N/O (configuration not stated) | > 100
COc1c(CC(C)=O)ccc2c1C(=O)c1ccc(C=O)c(OC(C)=O)c1C2=O | 23

Tested on: SK-OV-3 ovarian
Experiment: NCI-60 cell line screen, 48 h

Compound | TGI [µM]
COc1ccc2c(c1)[n+]([O-])c(C(N)=O)c(N)[n+]2[O-] | > 100
Clc1ccc2cccc3c2c1C1OC3c2ccccc21 (configuration not stated) | > 100
CN(C)C(=S)/N=c1\ssc(=S)n1C1CCCCC1 | > 100
CCCCCCCCCCCCNC(=S)OC | 35
O=c1[nH]c2cc(Cl)ccc2nc1/C(=N\Nc1ccccc1)C(O)c1ccc(Cl)c(Cl)c1 (configuration not stated) | > 100
S=P1(Oc2ccccc2)NNP2(=NP(N3CC3)(N3CC3)=NP(N3CC3)(N3CC3)=N2)NN1 (configuration not stated) | > 100
CN(C)CC1CCCC/C1=N/O (configuration not stated) | > 100
COc1c(CC(C)=O)ccc2c1C(=O)c1ccc(C=O)c(OC(C)=O)c1C2=O | > 100

Tested on: TK-10 renal
Experiment: NCI-60 cell line screen, 48 h

Compound | TGI [µM]
Clc1ccc2cccc3c2c1C1OC3c2ccccc21 (configuration not stated) | > 100
CN(C)C(=S)/N=c1\ssc(=S)n1C1CCCCC1 | > 100
CCCCCCCCCCCCNC(=S)OC | 34.5
O=c1[nH]c2cc(Cl)ccc2nc1/C(=N\Nc1ccccc1)C(O)c1ccc(Cl)c(Cl)c1 (configuration not stated) | > 100
S=P1(Oc2ccccc2)NNP2(=NP(N3CC3)(N3CC3)=NP(N3CC3)(N3CC3)=N2)NN1 (configuration not stated) | > 100
CN(C)CC1CCCC/C1=N/O (configuration not stated) | > 100
COc1c(CC(C)=O)ccc2c1C(=O)c1ccc(C=O)c(OC(C)=O)c1C2=O | 75.1
